One test concerns the target Escherichia coli DNA gyrase A/B tetramer (Escherichia coli (strain K12), UniProt P0AES4+P0AES6). The experiment in a line: DNA gyrase supercoiling activity fluorescence polarisation assay. In kind it is biochemical.
Settings: not given
On the procedure:
DNA Gyrase Supercoiling Activity Fluorescence Polarisation Assay
The supercoiling reactions may be quenched by the addition of 10 microliters/well of 40 nM oligodeoxynucleotide probe in 3× triplex-forming buffer consisting of 150 mM NaCl, and 150 mM sodium acetate at pH 3.5. The oligodeoxynucleotide probe may be 5′-BODIPY-FL-labeled […]. After 60 minutes, the fluorescence anisotropy of the BODIPY-FL may be measured in a Tecan Ultra plate reader, using 485 nm excitation and 535 nm emission filters equipped with polarizers. The IC50 may be determined by nonlinear regression using two control reactions. The first contains no test compound but 0.8% DMSO (100% activity) while the second control reaction contains 5 μM Ciprofloxacin and 0.8% DMSO (0% activity).
In general terms: Polarisation of emitted light reports the rotation of a fluorescent probe.
`C[C@@H]1CN2c3c(cc4c(N5CCCCC5)noc4c3F)CC3(C(=O)NC(=O)NC3=O)[C@H]2[C@H](C)O1` (relative stereo) [Example 21]: the IC50 (usually the midpoint of a concentration-inhibition curve) was 2400 nM.

Still in this test, the particulars now being: 5 nM enzyme, relaxed plasmid, 0.3 mM ATP, ambient temperature; read-out: E. coli DNA gyrase supercoiling IC50.
For `Cc1cc(CNc2noc3c(F)c4c(cc23)CC2(C(=O)NC(=O)NC2=O)[C@H]2[C@H](C)O[C@H](C)CN42)no1` (relative stereo) [Example 13, (2R,4S,4aS)-rel-11-fluoro-2,4-dimethyl-8-{[(5-methyl-1,2-oxazol-3-yl)methyl]amino}-1,2,4,4a-tetrahydro-2′H,6H-spiro[1,4-oxazino[4,3-a][1,2]oxazolo[4,5-g]quinoline-5,5′-pyrimidine]-2′,4′,6′(1′H,3′H)-trione], the 50% inhibitory concentration (IC50) worked out at 1700 nM.
For the compound `C[C@@H]1CN2c3c(cc4c(NCc5cccnc5)noc4c3F)CC3(C(=O)NC(=O)NC3=O)[C@H]2[C@H](C)O1` (relative stereo) [Example 15, (2R,4S,4aS)-rel-11-fluoro-2,4-dimethyl-8-[(pyridin-3-ylmethyl)amino]-1,2,4,4a-tetrahydro-2′H,6H-spiro[1,4-oxazino[4,3-a][1,2]oxazolo[4,5-g]quinoline-5,5′-pyrimidine]-2′,4′,6′(1′H,3′H)-trione], the IC50 amounted to 1000 nM.
For the compound `C[C@@H]1CN2c3c(cc4c(NCc5ccncc5)noc4c3F)CC3(C(=O)NC(=O)NC3=O)[C@H]2[C@H](C)O1` (relative stereo) [Example 16, (2R,4S,4aS)-rel-11-fluoro-2,4-dimethyl-8-[(pyridin-4-ylmethyl)amino]-1,2,4,4a-tetrahydro-2′H,6H-spiro[1,4-oxazino[4,3-a][1,2]oxazolo[4,5-g]quinoline-5,5′-pyrimidine]-2′,4′,6′(1′H,3′H)-trione], the IC50 was 2400 nM.
Still for that read-out and setting: for `C[C@@H]1CN2c3c(cc4c(NCC5CC5)noc4c3F)CC3(C(=O)NC(=O)NC3=O)[C@H]2[C@H](C)O1` (relative stereo) [Example 17, (2R,4S,4aS)-rel-8-[(cyclopropylmethyl)amino]-11-fluoro-2,4-dimethyl-1,2,4,4a-tetrahydro-2′H,6H-spiro[1,4-oxazino[4,3-a][1,2]oxazolo[4,5-g]quinoline-5,5′-pyrimidine]-2′,4′,6′(1′H,3′H)-trione] the value was 1400 nM; for `C[C@@H]1CN2c3c(cc4c(NCC5CCCCC5)noc4c3F)CC3(C(=O)NC(=O)NC3=O)[C@H]2[C@H](C)O1` (relative stereo) [Example 18, (2R,4S,4aS)-rel-8-[(cyclohexylmethyl)amino]-11-fluoro-2,4-dimethyl-1,2,4,4a-tetrahydro-2′H,6H-spiro[1,4-oxazino[4,3-a][1,2]oxazolo[4,5-g]quinoline-5,5′-pyrimidine]-2′,4′,6′(1′H,3′H)-trione], 2900 nM; for `C[C@@H]1CN2c3c(cc4c(NCC5CCOCC5)noc4c3F)CC3(C(=O)NC(=O)NC3=O)[C@H]2[C@H](C)O1` (relative stereo) [Example 19, (2R,4S,4aS)-rel-11-fluoro-2,4-dimethyl-8-[(tetrahydro-2H-pyran-4-ylmethyl)amino]-1,2,4,4a-tetrahydro-2′H,6H-spiro[1,4-oxazino[4,3-a][1,2]oxazolo[4,5-]quinoline-5,5′-pyrimidine]-2′,4′,6′(1′H,3′H)-trione], 2900 nM.
Still for that read-out and setting: with `C[C@@H]1CN2c3c(cc4c(N5CCN(C(=O)OC(C)(C)C)CC5)noc4c3F)CC3(C(=O)NC(=O)NC3=O)[C@H]2[C@H](C)O1` (relative stereo) [Example 20, tert-butyl 4-[(2R,4S,4aS)-rel-11-fluoro-2,4-dimethyl-2′,4′,6′-trioxo-1,1′,2,3′,4,4′,4a,6′-octahydro-2′H,6H-spiro[isoxazolo[4,5-g][1,4]oxazino[4,3-a]quinoline-5,5′-pyrimidin]-8-yl]piperazine-1-carboxylate] the figure was 20000 nM; with `C[C@@H]1CN2c3c(cc4c(N5CCOCC5)noc4c3F)CC3(C(=O)NC(=O)NC3=O)[C@H]2[C@H](C)O1` (relative stereo) [Example 22, (2R,4S,4aS)-rel-11-fluoro-2,4-dimethyl-8-(morpholin-4-yl)-1,2,4,4a-tetrahydro-2′H,6H-spiro[isoxazolo[4,5-g][1,4]oxazino[4,3-a]quinoline-5,5′-pyrimidine]-2′,4′,6′(1′H,3′H)-trione], 2600 nM; with `CCN(CC)c1noc2c(F)c3c(cc12)CC1(C(=O)NC(=O)NC1=O)[C@H]1[C@H](C)O[C@H](C)CN31` (relative stereo) [Example 23, (2R,4S,4aS)-rel-8-(diethylamino)-11-fluoro-2,4-dimethyl-1,2,4,4a-tetrahydro-2′H,6H-spiro[isoxazolo[4,5-g][1,4]oxazino[4,3-a]quinoline-5,5′-pyrimidine]-2′,4′,6′(1′H,3′H)-trione], 4300 nM.
On the same count and under the same terms, for `C[C@@H]1CN2c3c(cc4c(N(C)C)noc4c3F)CC3(C(=O)NC(=O)NC3=O)[C@H]2[C@H](C)O1` (relative stereo) [Example 24, (2R,4S,4aS)-rel-8-(dimethylamino)-11-fluoro-2,4-dimethyl-1,2,4,4a-tetrahydro-2′H,6H-spiro[isoxazolo[4,5-g][1,4]oxazino[4,3-a]quinoline-5,5′-pyrimidine]-2′,4′,6′(1′H,3′H)-trione] the value was 300 nM; for `C[C@@H]1CN2c3c(cc4c(N5CCCC5)noc4c3F)CC3(C(=O)NC(=O)NC3=O)[C@H]2[C@H](C)O1` (relative stereo) [Example 25, (2R,4S,4aS)-rel-11-fluoro-2,4-dimethyl-8-(pyrrolidin-1-yl)-1,2,4,4a-tetrahydro-2′H,6H-spiro[isoxazolo[4,5-g][1,4]oxazino[4,3-a]quinoline-5,5′-pyrimidine]-2′,4′,6′(1′H,3′H)-trione], 1500 nM; for `C[C@@H]1CN2c3c(cc4c(N5CCCCCC5)noc4c3F)CC3(C(=O)NC(=O)NC3=O)[C@H]2[C@H](C)O1` (relative stereo) [Example 26, (2R,4S,4aS)-rel-8-(azepan-1-yl)-11-fluoro-2,4-dimethyl-1,2,4,4a-tetrahydro-2′H,6H-spiro[isoxazolo[4,5-g][1,4]oxazino[4,3-a]quinoline-5,5′-pyrimidine]-2′,4′,6′(1′H,3′H)-trione], 3700 nM.
As for `Cc1cc(C(F)(F)F)nn1-c1noc2c(F)c3c(cc12)CC1(C(=O)NC(=O)NC1=O)[C@H]1[C@H](C)O[C@H](C)CN31` (relative stereo) [Example 27, (2R,4S,4aS)-rel-11-fluoro-2,4-dimethyl-8-[5-methyl-3-(trifluoromethyl)-1H-pyrazol-1-yl]-1,2,4,4a-tetrahydro-2′H,6H-spiro[isoxazolo[4,5-g][1,4]oxazino[4,3-a]quinoline-5,5′-pyrimidine]-2′,4′,6′(1′H,3′H)-trione], the IC50 was determined as 7100 nM.
With `CC(=O)Nc1ccn(-c2noc3c(F)c4c(cc23)CC2(C(=O)NC(=O)NC2=O)[C@H]2[C@H](C)O[C@H](C)CN42)n1` (relative stereo) [Example 28, N-{1-[(2R,4S,4aS)-rel-11-fluoro-2,4-dimethyl-2′,4′,6′-trioxo-1,1′,2,3′,4,4′,4a,6′-octahydro-2′H,6H-spiro[1,4-oxazino[4,3-a][1,2]oxazolo[4,5-g]quinoline-5,5′-pyrimidin]-8-yl]-1H-pyrazol-3-yl}acetamide], the half-inhibitory concentration (IC50) was 3100 nM.
With `Cc1cc(C(F)F)nn1-c1noc2c(F)c3c(cc12)CC1(C(=O)NC(=O)NC1=O)[C@H]1[C@H](C)O[C@H](C)CN31` (relative stereo) [Example 30, (2R,4S,4aS)-rel-8-[3-(difluoromethyl)-5-methyl-1H-pyrazol-1-yl]-11-fluoro-2,4-dimethyl-1,2,4,4a-tetrahydro-2′H,6H-spiro[isoxazolo[4,5-g][1,4]oxazino[4,3-a]quinoline-5,5′-pyrimidine]-2′,4′,6′(1′H,3′H)-trione], the IC50 worked out at 5400 nM.
On the same count and under the same terms, with `CCCNc1noc2c(F)c3c(cc12)CC1(C(=O)NC(=O)NC1=O)[C@H]1[C@H](C)O[C@H](C)CN31` (relative stereo) [Example 31, (2R,4S,4aS)-rel-11-fluoro-2,4-dimethyl-8-(propylamino)-1,2,4,4a-tetrahydro-2′H,6H-spiro[1,4-oxazino[4,3-a][1,2]oxazolo[4,5-g]quinoline-5,5′-pyrimidine]-2′,4′,6′(1′H,3′H)-trione] the figure was 2200 nM; with `C[C@@H]1CN2c3c(cc4c(N(C)Cc5ccccc5)noc4c3F)CC3(C(=O)NC(=O)NC3=O)[C@H]2[C@H](C)O1` (relative stereo) [Example 32, (2R,4S,4aS)-rel-8-[benzyl(methyl)amino]-11-fluoro-2,4-dimethyl-1,2,4,4a-tetrahydro-2′H,6H-spiro[1,4-oxazino[4,3-a][1,2]oxazolo[4,5-g]quinoline-5,5′-pyrimidine]-2′,4′,6′(1′H,3′H)-trione], 600 nM.
Same read-out and setting: with `C[C@@H]1CN2c3c(cc4c(-n5cc(C#N)c(N)n5)noc4c3F)CC3(C(=O)NC(=O)NC3=O)[C@H]2[C@H](C)O1` (relative stereo) [Example 33, 3-amino-1-[(2R,4S,4aS)-rel-11-fluoro-2,4-dimethyl-2′,4′,6′-trioxo-1,1′,2,3′,4,4′,4a,6′-octahydro-2′H,6H-spiro[1,4-oxazino[4,3-a][1,2]oxazolo[4,5-g]quinoline-5,5′-pyrimidin]-8-yl]-1H-pyrazole-4-carbonitrile] the figure was 1000 nM; with `C[C@@H]1CN2c3c(cc4c(-n5cc(-c6ccncn6)cn5)noc4c3F)CC3(C(=O)NC(=O)NC3=O)[C@H]2[C@H](C)O1` (relative stereo) [Example 34, (2R,4S,4aS)-rel-11-fluoro-2,4-dimethyl-8-[4-(pyrimidin-4-yl)-1H-pyrazol-1-yl]-1,2,4,4a-tetrahydro-2′H,6H-spiro[1,4-oxazino[4,3-a][1,2]oxazolo[4,5-g]quinoline-5,5′-pyrimidine]-2′,4′,6′(1′H,3′H)-trione], 16300 nM.

For the origin of these results see patent US9040528B2, “Chemical compounds 542” (AstraZeneca AB, priority 2008, dated 2015).
